Source: article PMC9656811, “Structure-Based Discovery and Biological Assays of a Novel PRMT5 Inhibitor for Non-Small Cell Lung Cancer” (Molecules, 2022)
pIC50: −log10 of the molar value.

Target: Protein arginine methyltransferase 5 (PRMT5) (Homo sapiens, UniProt O14744)
Test: AlphaLISA methyltransferase assay, […] concentrations, PRMT5 from BPS Bioscience (Cat. No. […])
Assay type: biochemical

Sequence of Protein arginine methyltransferase 5 (PRMT5) (O14744 2-637): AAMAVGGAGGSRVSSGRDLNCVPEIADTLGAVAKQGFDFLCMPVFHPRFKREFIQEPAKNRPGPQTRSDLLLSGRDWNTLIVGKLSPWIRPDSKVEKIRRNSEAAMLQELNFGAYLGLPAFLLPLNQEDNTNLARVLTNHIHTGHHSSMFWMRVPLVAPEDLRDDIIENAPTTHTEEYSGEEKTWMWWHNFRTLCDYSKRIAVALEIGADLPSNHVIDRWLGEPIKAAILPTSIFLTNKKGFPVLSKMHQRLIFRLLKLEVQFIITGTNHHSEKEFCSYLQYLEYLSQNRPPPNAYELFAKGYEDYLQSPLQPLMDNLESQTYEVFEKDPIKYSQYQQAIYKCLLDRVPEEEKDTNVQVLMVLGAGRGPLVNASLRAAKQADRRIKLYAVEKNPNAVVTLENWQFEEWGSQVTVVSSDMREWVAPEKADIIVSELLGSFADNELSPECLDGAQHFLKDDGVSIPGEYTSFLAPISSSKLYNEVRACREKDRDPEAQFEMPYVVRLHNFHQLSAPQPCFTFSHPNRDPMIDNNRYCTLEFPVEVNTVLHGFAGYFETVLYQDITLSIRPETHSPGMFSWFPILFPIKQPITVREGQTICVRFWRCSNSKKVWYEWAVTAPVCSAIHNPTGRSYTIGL
Sequence of Protein arginine methyltransferase 5 (PRMT5) (Q9BQA1 whole entry partner): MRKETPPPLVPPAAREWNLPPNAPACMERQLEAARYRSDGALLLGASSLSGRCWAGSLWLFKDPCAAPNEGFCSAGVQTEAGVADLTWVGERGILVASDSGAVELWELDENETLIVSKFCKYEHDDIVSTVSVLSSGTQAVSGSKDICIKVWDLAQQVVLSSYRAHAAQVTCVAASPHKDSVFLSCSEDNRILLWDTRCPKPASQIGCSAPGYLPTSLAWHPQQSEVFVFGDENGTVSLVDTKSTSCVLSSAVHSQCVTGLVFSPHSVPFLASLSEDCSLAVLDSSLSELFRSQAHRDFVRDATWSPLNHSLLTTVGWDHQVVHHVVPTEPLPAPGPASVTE

Compound O=C1c2ccccc2C(=O)c2c(NCCCN(CCO)CCO)cccc21 [3039-0164] has a pIC50 of 4.20.
